Results reported in patent US20050009840A1 (SUGEN, INC., priority 2003, published 2005).
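Further: Cell-free ELISA with plate-bound poly(Glu:Tyr 4:1) phosphorylated by GST-fused Met kinase domain plus ATP and Mn2+, phosphotyrosine detected by anti-phosphotyrosine antibody with HRP and ABTS read-out.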

Each compound was assayed against T1, Met kinase domain (GST fusion protein) (Homo sapiens, UniProt P08581) (assay: Met transphosphorylation assay (ELISA, poly(glu-tyr) substrate)). Settings: Table 2; read-out: Met IC50.
T1 construct: Purified GST fusion protein containing the Met kinase domain
T1 sequence (P08581 1078-1345 limits assumed): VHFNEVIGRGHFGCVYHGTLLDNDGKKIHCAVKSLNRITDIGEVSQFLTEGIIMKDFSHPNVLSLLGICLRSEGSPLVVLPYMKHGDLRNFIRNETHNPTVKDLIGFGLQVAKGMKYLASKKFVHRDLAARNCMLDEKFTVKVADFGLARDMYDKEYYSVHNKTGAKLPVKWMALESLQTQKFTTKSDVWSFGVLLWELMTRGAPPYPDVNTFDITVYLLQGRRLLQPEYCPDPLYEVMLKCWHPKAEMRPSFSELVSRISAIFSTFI
Type: biochemical
`CC(=O)N1CCN(CCS(=O)(=O)Nc2ccc(-c3cnc(N)c(OCc4c(F)ccc(F)c4Cl)c3)cc2)CC1` [Example I-250, 2-(4-Acetyl-piperazin-1-yl)-ethanesulfonic acid {4-[6-amino-5-(2-chloro-3,6-difluoro-benzyloxy)-pyridin-3-yl]-phenyl}-amide] gave an IC50 of 420 nM. `Nc1ncc(-c2ccc(NS(=O)(=O)CCNCC3CC3)cc2)cc1OCc1c(F)ccc(F)c1Cl` [Example I-251, 2-(Cyclopropylmethyl-amino)-ethanesulfonic acid {4-[6-amino-5-(2-chloro-3,6-difluoro-benzyloxy)-pyridin-3-yl]-phenyl}-amide] gave an IC50 of 75 nM. `Nc1ncc(-c2ccc(NS(=O)(=O)CCN3CC[C@@H](O)C3)cc2)cc1OCc1c(F)ccc(F)c1Cl` [Example I-252, 2-[(3R)-3-Hydroxy-pyrrolidin-1-yl]-ethanesulfonic acid {4-[6-amino-5-(2-chloro-3,6-difluoro-benzyloxy)-pyridin-3-yl]-phenyl}-amide] gave an IC50 of 125 nM. `Nc1ncc(-c2ccc(NS(=O)(=O)CCN3CCC[C@H]3CO)cc2)cc1OCc1c(F)ccc(F)c1Cl` [Example I-253, 2-[(2S)-2-Hydroxymethyl-pyrrolidin-1-yl]-ethanesulfonic acid {4-[6-amino-5-(2-chloro-3,6-difluoro-benzyloxy)-pyridin-3-yl]-phenyl}-amide] gave an IC50 of 97 nM. In the case of `Nc1ncc(-c2ccc(NS(=O)(=O)CCN3CCN(C(=O)CO)CC3)cc2)cc1OCc1c(F)ccc(F)c1Cl` [Example I-254, 2-[4-(2-Hydroxy-acetyl)-piperazin-1-yl]-ethanesulfonic acid {4-[6-amino-5-(2-chloro-3,6-difluoro-benzyloxy)-pyridin 3-yl]-phenyl}-amide], the IC50 is reported as 180 nM. `CC(=O)N1CCN(CCS(=O)(=O)Nc2cccc(-c3cnc(N)c(OCc4c(F)ccc(F)c4Cl)c3)c2)CC1` [Example I-255, 2-(4-Acetyl-piperazin-1-yl)-ethanesulfonic acid {3-[6-amino-5-(2-chloro-3,6-difluoro-benzyloxy)-pyridin-3-yl]-phenyl}-amide] showed an IC50 of 680 nM. Work on `Nc1ncc(-c2cccc(NS(=O)(=O)CCN3CCCC3)c2)cc1OCc1c(F)ccc(F)c1Cl` [Example I-256, 2-Pyrrolidin-1-yl-ethanesulfonic acid {3-[6-amino-5-(2-chloro-3,6-difluoro-benzyloxy)-pyridin-3-yl]-phenyl}-amide] yielded an IC50 of 230 nM. `Nc1ncc(-c2cccc(NS(=O)(=O)CCN3CCOCC3)c2)cc1OCc1c(F)ccc(F)c1Cl` [Example I-257, 2-Morpholin-4-yl-ethanesulfonic acid {3-[6-amino-5-(2-chloro-3,6-difluoro-benzyloxy)-pyridin-3-yl]-phenyl}-amide] gave an IC50 of 1640 nM. With `CCN(CC)CCS(=O)(=O)Nc1cccc(-c2cnc(N)c(OCc3c(F)ccc(F)c3Cl)c2)c1` [Example I-258, 2-Diethylamino-ethanesulfonic acid {3-[6-amino-5-(2-chloro-3,6-difluoro-benzyloxy)-pyridin-3-yl]-phenyl}amide] the IC50 was 1670 nM. With `CN(C)CCS(=O)(=O)Nc1cccc(-c2cnc(N)c(OCc3c(F)ccc(F)c3Cl)c2)c1` [Example I-259, 2-Dimethylamino-ethanesulfonic acid {3-[6-amino-5-(2-chloro-3,6-difluoro-benzyloxy)-pyridin-3-yl]-phenyl}-amide] the IC50 was 500 nM. In the case of `Nc1ncc(-c2cccc(NS(=O)(=O)CCN3CCCCC3)c2)cc1OCc1c(F)ccc(F)c1Cl` [Example I-260, 2-Pipendin-1-yl-ethanesulfonic acid {3-[6-amino-5-(2-chloro-3,6-difluoro-benzyloxy)-pyridin-3-yl]-phenyl}-amide], the IC50 is reported as 1630 nM. Compound `Nc1ncc(-c2cccc(NS(=O)(=O)CCN3CC[C@@H](CO)C3)c2)cc1OCc1c(F)ccc(F)c1Cl` [Example I-261, 2-[(3R)-3-Hydroxymethyl-pyrrolidin-1-yl]-ethanesulfonic acid {3-[6-amino-5-(2-chloro-3,6-difluoro-benzyloxy)-pyridin-3-yl]-phenyl}-amide] has an IC50 of 1700 nM. For `Nc1ncc(-c2cccc(NS(=O)(=O)CCN3CCC(O)CC3)c2)cc1OCc1c(F)ccc(F)c1Cl` [Example I-262, 2-(4-Hydroxy-piperidin-1-yl)-ethanesulfonic acid {3-[6-amino-5-(2-chloro-3,6-difluoro-benzyloxy)-pyridin-3-yl]-phenyl}-amide], the IC50 was 1500 nM. In the case of `Nc1ncc(-c2cccc(NS(=O)(=O)CCN3CCN(C(=O)CO)CC3)c2)cc1OCc1c(F)ccc(F)c1Cl` [Example I-263, 2-[4-(2-Hydroxy-acetyl)-piperazin-1-yl]-ethanesulfonic acid {3-[6-amino-5-(2-chloro-3,6-difluoro-benzyloxy)-pyridin-3-yl]-phenyl}-amide], the IC50 is reported as 1140 nM. `Nc1ncc(-c2cccc(NS(=O)(=O)CCN3CC[C@@H](O)C3)c2)cc1OCc1c(F)ccc(F)c1Cl` [Example I-264, 2-[(3R)-3-Hydroxy-pyrrolidin-1-yl]-ethanesulfonic acid {3-[6-amino-5-(2-chloro-3,6-difluoro-benzyloxy)-pyridin-3-yl]-phenyl}-amide] showed an IC50 of 1100 nM. For `Nc1ncc(-c2cccc(NS(=O)(=O)CCNCC3CC3)c2)cc1OCc1c(F)ccc(F)c1Cl` [Example I-265, 2-(Cyclopropylmethyl-amino)-ethanesulfonic acid {3-[6-amino-5-(2-chloro-3,6-difluoro-benzyloxy)-pyridin-3-yl]-phenyl}-amide], the IC50 was 1000 nM. `Nc1ncc(-c2cccc(NS(=O)(=O)CCNC3CC3)c2)cc1OCc1c(F)ccc(F)c1Cl` [Example I-266, 2-Cyclopropylamino-ethanesulfonic acid {3-[6-amino-5-(2-chloro-3,6-difluoro-benzyloxy)-pyridin-3-yl]-phenyl}-amide] was tested, and the IC50 was 900 nM. `Nc1ncc(-c2cccc(N3CCCC3)c2)cc1OCc1c(F)ccc(F)c1Cl` [Example I-268, 3-(2-Chloro-3,6-difluoro-benzyloxy)-5-(3-pyrrolidin-1-yl-phenyl)-pyridin-2-ylamine; compound with trifluoro-acetic acid] gave an IC50 of 4000 nM. For `CC(Oc1cc(-c2ccc(NS(=O)(=O)CCN3CCCCC3)cc2)cnc1N)c1c(F)ccc(F)c1Cl` (centres unmarked) [Example I-286, 2-Piperidin-1-yl-ethanesulfonic acid (4-{6-amino-5-[1-(2-cloro-3,6-difluoro-phenyl)-ethoxy]-pyridin-3-yl}-phenyl)-amide], the IC50 was 180 nM. Compound `CC(Oc1cc(-c2ccc(NS(=O)(=O)CCN3CCC(O)CC3)cc2)cnc1N)c1c(F)ccc(F)c1Cl` (centres unmarked) [Example I-287, 2-(4-Hydroxy-piperidin-1-yl)-ethanesulfonic acid (4-{6-amino-5-[1-(2-chloro-3,6-difluoro-phenyl)-ethoxy]-pyridin-3-yl}-phenyl)-amide] has an IC50 of 140 nM. With `CC(Oc1cc(-c2ccc(NS(=O)(=O)CCN(C)C)cc2)cnc1N)c1c(F)ccc(F)c1Cl` (centres unmarked) [Example I-288] the IC50 was 150 nM. `CC(Oc1cc(-c2ccc(NS(=O)(=O)CCNC3CC3)cc2)cnc1N)c1c(F)ccc(F)c1Cl` (centres unmarked) [Example I-289, 2-Cyclopropylamino-ethanesulfonic acid (4-{6-amino-5-[1-(2-chloro-3,6-difluoro-phenyl)-ethoxy]-pyridin-3-yl}-phenyl)-amide] showed an IC50 of 160 nM. Work on `CC(Oc1cc(-c2cccc(C(=O)N3CC[C@@H](N)C3)c2)cnc1N)c1c(Cl)ccc(F)c1Cl` (some centres unmarked) [Example I-293] yielded an IC50 of 51 nM. For `CC(Oc1cc(-c2ccc(C(=O)N3CCN(C)CC3)cc2)cnc1N)c1c(Cl)ccc(F)c1Cl` (centres unmarked) [Example I-295, (4-{6-Amino-5-[1-(2,6-dichloro-3-fluoro-phenyl)-ethoxy]-pyridin-3-yl}-phenyl)-(4-methyl-piperazin-1-yl)-methanone], the IC50 was 79 nM. Compound `CC(Oc1cc(-c2ccc(NS(=O)(=O)CCNC3CC3)cc2)cnc1N)c1c(Cl)ccc(F)c1Cl` (centres unmarked) [Example I-297, 2-Cyclopropylamino-ethanesulfonic acid (4-{6-amino-5-[1-(2,6-dichloro-3-fluoro-phenyl)-ethoxy]-pyridin-3-yl}-phenyl)-amide] has an IC50 of 164 nM. Compound `CC(Oc1cc(-c2ccc(NS(=O)(=O)CCN3CC[C@@H](O)C3)cc2)cnc1N)c1c(Cl)ccc(F)c1Cl` (some centres unmarked) [Example I-299] has an IC50 of 62 nM. Work on `CC(Oc1cc(-c2ccc(C(=O)NCCCN3CCCC3)cc2)cnc1N)c1c(Cl)ccc(F)c1Cl` (centres unmarked) [Example I-301, 4-{6-Amino-5-[1-(2,6-dichloro-3-fluoro-phenyl)-ethoxy]-pyridin-3-yl}-N-(3-pyrrolidin-1-yl-propyl)-benzamide] yielded an IC50 of 64 nM. For `CC(Oc1cc(-c2ccc(C(=O)NCCN3CCOCC3)cc2)cnc1N)c1c(Cl)ccc(F)c1Cl` (centres unmarked) [Example I-302, 4-{6-Amino-5-[1-(2,6-dichloro-3-fluoro-phenyl)-ethoxy]-pyridin-3-yl}-N-(2-morpholin-4-yl-ethyl)-benzamide], the IC50 was 71 nM. Compound `CC(Oc1cc(-c2ccc(C(=O)N3CC[C@@H](N)C3)cc2)cnc1N)c1c(Cl)ccc(F)c1Cl` (stereo partly drawn) [Example I-304, (4-{6-Amino-5-[1-(2,6-dichloro-3-fluoro-phenyl)-ethoxy]-pyridin-3-yl}-phenyl)-((R)-3-amino-pyrrolidin-1-yl)-methanone] has an IC50 of 72 nM. `CC(Oc1cc(-c2ccc(C(=O)N3CCC(N)CC3)cc2)cnc1N)c1c(Cl)ccc(F)c1Cl` (centres unmarked) [Example I-305, (4-{6-Amino-5-[1-(2,6-dichloro-3-fluoro-phenyl)-ethoxy]-pyridin-3-yl}-phenyl)-(4-amino-piperidin-1-yl)-methanone] was tested, and the IC50 was 180 nM. For `CC(Oc1cc(-c2ccc(C(=O)N3CC[C@H](O)C3)cc2)cnc1N)c1c(Cl)ccc(F)c1Cl` (stereo partly drawn) [Example I-306, (4-{6-Amino-5-[1-(2,6-dichloro-3-fluoro-phenyl)-ethoxy]-pyridin-3-yl}-phenyl)-((S)-3-hydroxy-pyrrolidin-1-yl)-methanone], the IC50 was 24 nM. Work on `CC(Oc1cc(-c2ccc(C(=O)N3CC[C@@H](O)C3)cc2)cnc1N)c1c(Cl)ccc(F)c1Cl` (stereo partly drawn) [Example I-307, (4-{6-Amino-5-[1-(2,6-dichloro-3-fluoro-phenyl)-ethoxy]-pyridin-3-yl}-phenyl)-((R)-3-hydroxy-pyrrolidin-1-yl)-methanone] yielded an IC50 of 22 nM.
